From ChEMBL document CHEMBL5712909, “WDR5 inhibition halts metastasis dissemination by repressing the mesenchymal phenotype of breast cancer cells” (2019)
Activity calls are given as the source filed them. No cut-off for these calls is given here.

What was measured:
MCF10DCIS [1] = assay: Inhibition of cell migration in human MCF10DCIS cells assessed as reduction in cell migration incubated for 3 days by crystal violet staining based transwell assay; type: functional; settings: dose 1-20 µM, time 3.0 day
MDA-MB-231 [2] = assay: Induction of cell cycle arrest in human MDA-MB-231 cells assessed as accumulation of cells in G2/M phase at 20 microM for 3 days by BrDU and PI staining based flow cytometric analysis (reference value: 19.3%); type: functional; settings: time 3 day
MBC2 [3] = assay: Antiproliferative activity against human MBC2 cells assessed as reduction in cell viability at 20 uM for 3 days by cell titre glo assay; type: functional, cell-based; settings: time 3.0 day
MDA-MB-231 [4] = assay: Induction of cell cycle arrest in human MDA-MB-231 cells assessed as accumulation of cells in G0/G1 phase at 20 microM for 3 days by BrDU and PI staining based flow cytometric analysis (reference value: 30.5%); type: functional; settings: time 3 day
MCF-10A = assay: Inhibition of cell migration in human MCF-10A cells assessed as reduction in cell migration incubated for 3 days by crystal violet staining based transwell assay; type: functional; settings: dose 1-20 µM, time 3.0 day
MDA-MB-231 [5] = assay: Induction of cell cycle arrest in human MDA-MB-231 cells assessed as accumulation of cells in G2/M phase at 10 nM for 3 days by BrDU and PI staining based flow cytometric analysis (reference value: 19.3%); type: functional
MDA-MB-231 [6] = assay: Induction of cell cycle arrest in human MDA-MB-231 cells assessed as accumulation of cells in not cycling S phase at 20 microM for 3 days by BrDU and PI staining based flow cytometric analysis (reference value: 2.5%); type: functional
MDA-MB-231 [7] = assay: Induction of cell cycle arrest in human MDA-MB-231 cells assessed as accumulation of cells in G2/M phase at 10 uM for 3 days by BrDU and PI staining based flow cytometric analysis (reference value: 19.3%); type: functional
MBC26 [8] = assay: Antiproliferative activity against human MBC26 cells assessed as reduction in cell viability at 20 uM for 3 days by cell titre glo assay; type: functional, cell-based; settings: time 3.0 day
MBC26 [9] = assay: Inhibition of cell migration in human MBC26 cells assessed as reduction in cell migration at 20 microM for 3 days by crystal violet staining based transwell assay; type: functional; settings: time 3.0 day
MBC2 [10] = assay: Inhibition of cell migration in human MBC2 cells assessed as reduction in cell migration at 20 microM for 3 days by crystal violet staining based transwell assay; type: functional; settings: time 3.0 day
MDA-MB-231 [11] = assay: Inhibition of cell migration in human MDA-MB-231 cells assessed as reduction in cell migration incubated for 3 days by crystal violet staining based transwell assay; type: functional; settings: dose 1-20 µM, time 3.0 day
MDA-MB-231 [12] = assay: Induction of cell cycle arrest in human MDA-MB-231 cells assessed as accumulation of cells in G0/G1 phase at 10 nM for 3 days by BrDU and PI staining based flow cytometric analysis (reference value: 30.5%); type: functional
MDA-MB-231 [13] = assay: Induction of cell cycle arrest in human MDA-MB-231 cells assessed as accumulation of cells in S phase at 20 microM for 3 days by BrDU and PI staining based flow cytometric analysis (reference value: 45.7%); type: functional
MDA-MB-231 [14] = assay: Induction of cell cycle arrest in human MDA-MB-231 cells assessed as accumulation of cells in G0/G1 phase at 10 uM for 3 days by BrDU and PI staining based flow cytometric analysis (reference value: 30.5%); type: functional
MDA-MB-231 [15] = assay: Induction of cell cycle arrest in human MDA-MB-231 cells assessed as accumulation of cells in S phase at 10 uM for 3 days by BrDU and PI staining based flow cytometric analysis (reference value: 45.7%); type: functional; settings: time 3 day
MCF10DCIS [16] = assay: Inhibition of cell migration in human MCF10DCIS cells assessed as reduction in cell migration at 10 microM for 3 days by crystal violet staining based transwell assay; type: functional; settings: time 3.0 day
MBC2 [17] = assay: Antiproliferative activity against human MBC2 cells assessed as reduction in cell viability at 10 uM for 3 days by cell titre glo assay; type: functional, cell-based; settings: time 3.0 day
MDA-MB-231 [18] = assay: Induction of cell cycle arrest in human MDA-MB-231 cells assessed as accumulation of cells in S phase at 10 nM for 3 days by BrDU and PI staining based flow cytometric analysis (reference value: 45.7%); type: functional
MDA-MB-231 [19] = assay: Induction of cell cycle arrest in human MDA-MB-231 cells assessed as accumulation of cells in not cycling S phase at 10 uM for 3 days by BrDU and PI staining based flow cytometric analysis (reference value: 2.5%); type: functional; settings: time 3 day
MDA-MB-231 [20] = assay: Inhibition of cell migration in human MDA-MB-231 cells assessed as reduction in cell migration at 10 microM for 3 days by crystal violet staining based transwell assay; type: functional; settings: time 3.0 day
MBC26 [21] = assay: Antiproliferative activity against human MBC26 cells assessed as reduction in cell viability at 10 uM for 3 days by cell titre glo assay; type: functional, cell-based; settings: time 3.0 day
MDA-MB-231 [22] = assay: Induction of cell cycle arrest in human MDA-MB-231 cells assessed as accumulation of cells in not cycling S phase at 10 nM for 3 days by BrDU and PI staining based flow cytometric analysis (reference value: 2.5%); type: functional
MDA-MB-231 [23] = assay: Induction of cell cycle arrest in human MDA-MB-231 cells assessed as accumulation of cells in G0/G1 phase at 10 nM for 3 days in presence of galunisertib by BrDU and PI staining based flow cytometric analysis (reference value: 30.5%); type: functional; settings: time 3 day
MDA-MB-231 [24] = assay: Induction of cell cycle arrest in human MDA-MB-231 cells assessed as DNA damage by measuring gamma H2AX phosphorylation at 10 nM for 3 days in presence of OICR-9429 by Western blot analysis; type: functional, cell-based; settings: time 3.0 day
MDA-MB-231 [25] = assay: Induction of cell cycle arrest in human MDA-MB-231 cells assessed as accumulation of cells in G0/G1 phase at 10 nM for 3 days in presence of OCIR-9429 by BrDU and PI staining based flow cytometric analysis (reference value: 30.5%); type: functional; settings: time 3 day
MDA-MB-231 [26] = assay: Cytotoxicity against human MDA-MB-231 cells assessed as cell viability at 10 nM for 3 days in presence of OCIR-9429 relative to control; type: functional; settings: MDA-MB-231, 72 h, time 3 day, read-out: Activity
MBC2 [27] = assay: Cytotoxicity against human MBC2 cells assessed as cell viability at 1 to 10 nM for 3 days in presence of galunisertib; type: functional, cell-based; settings: dose 1-10 nM, time 3.0 day
MDA-MB-231 [28] = assay: Cytotoxicity against human MDA-MB-231 cells assessed as cell viability at 10 nM for 3 days in presence of galunisertib relative to control; type: functional; settings: MDA-MB-231, 72 h, time 3 day, read-out: Activity
MDA-MB-231 [29] = assay: Induction of cell cycle arrest in human MDA-MB-231 cells assessed as accumulation of cells in G2/M phase at 10 nM for 3 days in presence of galunisertib by BrDU and PI staining based flow cytometric analysis (reference value: 19.3%); type: functional; settings: time 3 day
MBC26 [30] = assay: Cytotoxicity against human MBC26 cells assessed as cell viability for 3 days at 1 to 10 nM in presence of -Gaulnisertib; type: functional, cell-based; settings: dose 1-10 nM, time 3.0 day
MDA-MB-231 [31] = assay: Induction of cell cycle arrest in human MDA-MB-231 cells assessed as accumulation of cells in not cycling S phase at 10 nM for 3 days in presence of galunisertib by BrDU and PI staining based flow cytometric analysis (reference value: 2.5%); type: functional; settings: time 3 day
MDA-MB-231 [32] = assay: Induction of cell cycle arrest in human MDA-MB-231 cells assessed as accumulation of cells in G2/M phase at 10 nM for 3 days in presence of OCIR-9429 by BrDU and PI staining based flow cytometric analysis (reference value: 19.3%); type: functional; settings: time 3 day
MBC26 [33] = assay: Cytotoxicity against human MBC26 cells assessed as cell viability for 3 days at 1 to 10 nM in presence of OCIR-9429; type: functional, cell-based; settings: dose 1-10 nM, time 3.0 day
MBC2 [34] = assay: Cytotoxicity against human MBC2 cells assessed as cell viability at 1 to 10 nM for 3 days in presence of OCIR-9429; type: functional, cell-based; settings: dose 1-10 nM, time 3.0 day
MDA-MB-231 [35] = assay: Induction of cell cycle arrest in human MDA-MB-231 cells assessed as accumulation of cells in S phase at 10 nM for 3 days in presence of OCIR-9429 by BrDU and PI staining based flow cytometric analysis (reference value: 45.7%); type: functional; settings: time 3 day
MDA-MB-231 [36] = assay: Induction of cell cycle arrest in human MDA-MB-231 cells assessed as accumulation of cells in not cycling S phase at 10 nM for 3 days in presence of OCIR-9429 by BrDU and PI staining based flow cytometric analysis (reference value: 2.5%); type: functional; settings: time 3 day
MDA-MB-231 [37] = assay: Induction of cell cycle arrest in human MDA-MB-231 cells assessed as accumulation of cells in S phase at 10 nM for 3 days in presence of galunisertib by BrDU and PI staining based flow cytometric analysis (reference value: 45.7%); type: functional; settings: time 3 day
MDA-MB-231 [38] = assay: Induction of cell cycle arrest in human MDA-MB-231 cells assessed as cleaved PARP at 10 nM for 3 days in presence of OICR-9429 by Western blot analysis; type: functional, cell-based; settings: time 3.0 day
MDA-MB-231 [39] = assay: Induction of cell cycle arrest in human MDA-MB-231 cells assessed as DNA damage by measuring gamma H2AX phosphorylation at 10 nM for 3 days in presence of galunisertib by Western blot analysis; type: functional, cell-based; settings: time 3.0 day
MDA-MB-231 [40] = assay: Induction of cell cycle arrest in human MDA-MB-231 cells assessed as cleaved PARP at 10 nM for 3 days in presence of galunisertib by Western blot analysis; type: functional, cell-based; settings: time 3.0 day

Compound: CN1CCN(c2ccc(-c3cccc(CN4CCOCC4)c3)cc2NC(=O)c2c[nH]c(=O)cc2C(F)(F)F)CC1
- inhibition (MCF10DCIS [1]): Dose-Dependent Effect
- Activity (MDA-MB-231 [2]): 19.1%
- Activity (MBC2 [3]): inactive
- Activity (MDA-MB-231 [4]): 32.3%
- inhibition (MCF-10A): inactive
- Activity (MDA-MB-231 [5]; time 3.0 day): Active
- Activity (MDA-MB-231 [6]; time 3 day): 2.2%
- Activity (MDA-MB-231 [7]; time 3.0 day): Active
- Activity (MBC26 [8]): inactive
- inhibition (MBC26 [9]): Active
- inhibition (MBC2 [10]): Active
- inhibition (MDA-MB-231 [11]): Dose-Dependent Effect
- Activity (MDA-MB-231 [12]; time 3.0 day): Active
- Activity (MDA-MB-231 [13]; time 3 day): 46%
- Activity (MDA-MB-231 [14]; time 3.0 day): inactive

Compound: Cc1cccc(-c2nn3c(c2-c2ccnc4ccc(C(N)=O)cc24)CCC3)n1 [GALUNISERTIB]
- Activity (MDA-MB-231 [15]): 48.8%
- inhibition (MCF10DCIS [16]): Active
- Activity (MBC2 [17]): inactive
- Activity (MDA-MB-231 [18]; time 3.0 day): Active
- Activity (MDA-MB-231 [6]; time 3.0 day): inactive
- Activity (MDA-MB-231 [19]): 1.5%
- Activity (MDA-MB-231 [7]; time 3 day): 18.5%
- inhibition (MDA-MB-231 [20]): Active
- Activity (MBC26 [21]): inactive
- Activity (MDA-MB-231 [13]; time 3.0 day): inactive
- Activity (MDA-MB-231 [22]; time 3.0 day): Active
- Activity (MDA-MB-231 [14]; time 3 day): 30.4%

Compound: CC(=O)O[C@H]1C(=O)[C@@]2(C)[C@H]([C@H](OC(=O)c3ccccc3)[C@]3(O)C[C@H](OC(=O)[C@H](O)[C@@H](NC(=O)c4ccccc4)c4ccccc4)C(C)=C1C3(C)C)[C@]1(OC(C)=O)CO[C@@H]1C[C@@H]2O [PACLITAXEL]
- Activity (MDA-MB-231 [23]): 16.7%
- Activity (MDA-MB-231 [24]): Active
- Activity (MDA-MB-231 [25]): 22.4%
- viability at 0.01 µM (MDA-MB-231 [26]): 10%
- Activity (MBC2 [27]): Active
- viability at 0.01 µM (MDA-MB-231 [28]): 10%
- Activity (MDA-MB-231 [29]): 40.1%
- Activity (MDA-MB-231 [5]; time 3 day): 31.7%
- Activity (MBC26 [30]): Active
- Activity (MDA-MB-231 [31]): 8%
- Activity (MDA-MB-231 [32]): 37.5%
- Activity (MBC26 [33]): Active
- Activity (MDA-MB-231 [18]; time 3 day): 38.6%
- Activity (MBC2 [34]): Active
- Activity (MDA-MB-231 [35]): 26.7%
- Activity (MDA-MB-231 [36]): 11.9%
- Activity (MDA-MB-231 [37]): 34%
- Activity (MDA-MB-231 [12]; time 3 day): 19.2%
- Activity (MDA-MB-231 [38]): Active
- Activity (MDA-MB-231 [39]): Active
- Activity (MDA-MB-231 [22]; time 3 day): 9.2%
- Activity (MDA-MB-231 [40]): Active
